Patent EP4725957A1, “GROUP OF CYCLIC ALKALINE LIPOPEPTIDE COMPOUNDS, AND PREPARATION METHOD THEREFOR AND USE THEREOF” (Institute of Medicinal Biotechnology, Chinese Academy of …, priority 2023, dated 2024)
Converted amounts (≈) assume the structure as drawn. Bridge positions count the residues as written; N and C are the ends. Square brackets hold non-standard residues; d marks the D form. Peptide text beside a SMILES is read from it. * marks the point of attachment. Heptanoyl(6-Me) = CC(C)CCCCC(=O)*; dOrn = NCCC[C@@H](N)C(=O)O; Nonanoyl = CCCCCCCCC(=O)*; X1 = CC[C@H](C)CCCCC(=O)*; dDab = NCC[C@@H](N)C(=O)O; Octanoyl = CCCCCCCC(=O)*; Orn = NCCC[C@H](N)C(=O)O; dDap = NC[C@@H](N)C(=O)O; Dab = NCC[C@H](N)C(=O)O

How the values were obtained:
Type in all cases: cell-based
[1] = Nephrotoxicity assay: in vitro cytotoxicity of HK-2 cells by CCK-8 assay; settings: human, HK-2 cells (human renal), 72 h incubation with drug-containing medium
Procedure, shortened: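 HK-2 human renal cells in RPMI-1640 with 10% FBS were exposed to compounds at final 12.5–500 µg/mL for 72 h, then CCK-8 for 3 h and OD450 read. Viability was normalised to drug-free wells; IC50 came from logarithmic regression over three repeats, with polymyxin B as positive drug.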

[2] = tested on: Escherichia coli ATCC BAA-2340 (KPC); settings: ATCC BAA-2340
Procedure, shortened: (§1)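 Colonies from 18-24 h plates were suspended to 0.5 McFarland and diluted in MH broth. Two-fold compound dilutions were then mixed 1:1 with inoculum to reach 64 to 0.03 mg/L and (2-4) × 10^5 CFU/mL. Plates were sealed and incubated at 35-37°C for 16-20 h, after which the MIC was read.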

[3] = tested on: Acinetobacter baumannii ABA19-1; settings: ABA19-1
Procedure, shortened: as §1

[4] = tested on: Pseudomonas aeruginosa ATCC 27853; settings: ATCC 27853
Procedure, shortened: as §1

[5] = tested on: Klebsiella pneumoniae ATCC BAA-1705 (KPC); settings: ATCC BAA-1705
Procedure, shortened: as §1

[6] = tested on: Acinetobacter baumannii NCTC 13304 (OXA-27); settings: NCTC 13304
Procedure, shortened: as §1

[7] = tested on: Escherichia coli ATCC BAA-2523; settings: ATCC BAA-2523
Procedure, shortened: as §1

[8] = tested on: Pseudomonas aeruginosa PAE19-3; settings: PAE19-3
Procedure, shortened: as §1

[9] = tested on: Klebsiella pneumoniae KPN+19-15; settings: KPN+19-15
Procedure, shortened: as §1

Row | Compound | IC50 at 72 h [1] [µg/mL] | MIC [2] [µg/mL] | MIC [3] [µg/mL] | MIC [4] [µg/mL] | MIC [5] [µg/mL] | MIC [6] [µg/mL] | MIC [7] [µg/mL] | MIC [8] [µg/mL] | MIC [9] [µg/mL]
1 | CCCCCCCC(=O)N[C@@H](CCN)C(=O)N[C@H](C(=O)N[C@H](CCCN)C(=O)N[C@H]1CCNC(=O)[C@H]([C@@H](C)O)NC(=O)[C@H](CCN)NC(=O)[C@H](CCN)NC(=O)[C@H]([C@@H](C)O)NC(=O)[C@@H](Cc2ccccc2)NC(=O)[C@H](CCN)NC1=O)[C@@H](C)O [Compound 23, Octanoyl-Dab-Thr-D-Orn-ring(4-10)[Dab-Dab-D-Phe-Thr-Dab-Dab-Thr]] (Octanoyl-[Dab]T[dOrn][Dab][Dab][dF]T[Dab][Dab]T; lactam 4-C) | > 500 | ≤0.03 | 0.125 (≈ 0.105 µM) | 0.25 (≈ 0.21 µM) | 0.06 (≈ 0.0504 µM) | 0.06 (≈ 0.0504 µM) | ≤0.03 | 1 (≈ 0.839 µM) | 0.125 (≈ 0.105 µM)
2 | CC(C)CCCCC(=O)N[C@@H](CCN)C(=O)N[C@H](C(=O)N[C@H](CCN)C(=O)N[C@H]1CCNC(=O)[C@H]([C@@H](C)O)NC(=O)[C@H](CCN)NC(=O)[C@H](CCN)NC(=O)[C@H]([C@@H](C)O)NC(=O)[C@@H](Cc2ccccc2)NC(=O)[C@H](CCN)NC1=O)[C@@H](C)O [Compound 12, 6-methylheptanoyl-Dab-Thr-D-Dab-ring(4-10)[Dab-Dab-D-Phe-Thr-Dab-Dab-Thr]] ({Heptanoyl(6-Me)}-[Dab]T[dDab][Dab][Dab][dF]T[Dab][Dab]T; lactam 4-C) | > 500 | ≤0.03 | 0.06 (≈ 0.051 µM) | 0.5 (≈ 0.425 µM) | 0.125 (≈ 0.106 µM) | ≤0.03 | ≤0.03 | 0.5 (≈ 0.425 µM) | ≤0.03
3 | CCCCCCCCC(=O)N[C@@H](CCCN)C(=O)N[C@H](C(=O)N[C@H](CO)C(=O)N[C@H]1CCNC(=O)[C@H]([C@@H](C)O)NC(=O)[C@H](CCN)NC(=O)[C@H](CCN)NC(=O)[C@H]([C@@H](C)O)NC(=O)[C@@H](Cc2ccccc2)NC(=O)[C@H](CCN)NC1=O)[C@@H](C)O [Compound 60, Nonanoyl-Orn-Thr-D-Ser-ring(4-10)[Dab-Dab-D-Phe-Thr-Dab-Dab-Thr]] (Nonanoyl-[Orn]T[dS][Dab][Dab][dF]T[Dab][Dab]T; lactam 4-C) | 281 ± 9.5 (≈ 235 µM) | 0.25 (≈ 0.21 µM) | 0.25 (≈ 0.21 µM) | 64 (≈ 53.7 µM) | 0.25 (≈ 0.21 µM) | 0.25 (≈ 0.21 µM) | 0.25 (≈ 0.21 µM) | 8 (≈ 6.71 µM) | 0.5 (≈ 0.419 µM)
4 | CC[C@H](C)CCCCC(=O)N[C@@H](CCN)C(=O)N[C@H](C(=O)N[C@H](CN)C(=O)N[C@H]1CCNC(=O)[C@H]([C@@H](C)O)NC(=O)[C@H](CCN)NC(=O)[C@H](CCN)NC(=O)[C@H]([C@@H](C)O)NC(=O)[C@H](Cc2ccccc2)NC(=O)[C@H](CCN)NC1=O)[C@@H](C)O [Compound 101, (S)-6-methyloctanoyl-Dab-Thr-D-Dap-ring(4-10)[Dab-Dab-Phe-Thr-Dab-Dab-Thr]] (X1-[Dab]T[dDap][Dab][Dab]FT[Dab][Dab]T; lactam 4-C) | > 500 | >64 | >64 | >64 | >64 | >64 | >64 | >64 | >64
5 | CC(C)CCCCC(=O)N[C@@H](CCN)C(=O)N[C@H](C(=O)N[C@H](CN)C(=O)N[C@H]1CCNC(=O)[C@H]([C@@H](C)O)NC(=O)[C@H](CCN)NC(=O)[C@H](CCN)NC(=O)[C@H](CC(C)C)NC(=O)[C@@H](Cc2ccccc2)NC(=O)[C@H](CCN)NC1=O)[C@@H](C)O [Compound 32, 6-methylheptanoyl-Dab-Thr-D-Dap-ring(4-10)[Dab-Dab-D-Phe-Leu-Dab-Dab-Thr]] ({Heptanoyl(6-Me)}-[Dab]T[dDap][Dab][Dab][dF]L[Dab][Dab]T; lactam 4-C) | 325 ± 11.7 (≈ 277 µM) | 0.03 (≈ 0.0255 µM) | 0.03 (≈ 0.0255 µM) | 0.03 (≈ 0.0255 µM) | 0.03 (≈ 0.0255 µM) | 0.03 (≈ 0.0255 µM) | 0.03 (≈ 0.0255 µM) | 0.25 (≈ 0.213 µM) | 0.03 (≈ 0.0255 µM)
